Reference: patent publication US20140079785A1, “COMPOSITION COMPRISING LIPID NANOPARTICLES AND A CORTICOSTEROID OR VITAMIN D DERIVATIVE” (priority 2011, published 2014)

How the values were obtained:
[1] = test system: IL-1β, IL-4, IL-8, IL-10 and IL-12; assay: Cytokine level in ear tissue (MSD mouse TH1/TH2 9-plex); assay type: in vivo, mice; details: upon treatment with BMV
Protocol: The remaining ear tissue from the 8 mm biopsy was cut into two halves, one of which was tape stripped before analysing the drug concentration and the other was used for cytokine analysis. Both were snap-frozen in liquid nitrogen and stored at −80° C. until the analysis was carried out.
The ear tissue was homogenized in 200 μl lysis buffer using a Precellys® 24 tissue homogenizer with a Cryolys cooling unit from Bertin Technologies (Montigny-le-Bretonneux, France). The lysis buffer was composed of 1 mM Na3VO4, 0.4% (v/v) nonyl phenoxypolyethoxylethanol (NP40) and the protease inhibitor Complete™ from Roche Diagnostics (Mannheim, Germany) dissolved in PBS. […] The supernatant was kept at −80° C. until the MSD® cytokine assay was performed. A determination of the total protein concentration was performed to normalize the sample concentration before the cytokine determination. […] Specific level of the cytokines IFN-γ, IL-1-β, IL-2, IL-4, IL-5, IL-8, IL-10, IL-12 total and TNF-α in the ear tissue were determined with a MSD® mouse TH1/TH2 9-plex Multi-Spot® 96-well 10 spot plate using a MSD® Sector Imager 6000 (Meso Scale Discovery, Gaithersburg, Md., USA). The MSD® assay was optimized for tissue use. […] Washing was repeated 3 times with 0.05% (v/v) polysorbate 20 before finally adding 150 μl read buffer diluted 1:2 in MilliQ water and reading the plate on the MSD® Sector Imager 6000.

[2] = In vitro skin penetration and permeation of 3H BMV, Franz type diffusion cells; assay type: in vitro ADME, porcine; details: barrier-impaired versus intact skin, applied in SLN
Protocol: The porcine ears were obtained from newly slaughtered pigs from the Danish Meat Trade College (Roskilde, Denmark). The ears were stored at −20° C. and thawed slowly at 4° C. before shaving and removing full-thickness skin from the back of the ears using a scalpel. Subcutaneous tissue was carefully removed with a scalpel and the skin was cut into appropriate pieces before freezing at −20° C. until use (after no more than 14 days). Two skin pieces were obtained from each ear, and they were balanced with respect to intact and barrier-impaired skin.
Skin barrier impairment was induced by 25 successive tape strippings applying D-Squame® tape discs (Cuderm Corp., Dallas, USA). 225 g/cm^2 pressure on the tape was applied with a D-Squame® tape applicator for 5 sec. (Cuderm Corp., Dallas, USA). […]
Penetration profiles of BMV and lipid were evaluated. ^3H-labelled BMV and ^14C-labelled lipid were used to study the penetration of BMV and lipid particles (distearate and tripalmitate) into intact and barrier-impaired skin.
The skin was mounted on Franz type diffusion cells with the dermis side facing the receptor medium (diffusion area 3.14 cm^2, recipient volume 10 ml, constant stirring, temperature kept at 32° C.). […] The exact amount of formulation applied was determined by weighing the spatula before and after application. After complete incubation, the skin was separated and analyzed. […]

increase in BMV penetration [2]: 3-60 fold
Structure (SMILES): CCCCC(=O)O[C@]1(C(=O)CO)[C@@H](C)C[C@H]2[C@@H]3CCC4=CC(=O)C=C[C@]4(C)[C@@]3(F)[C@@H](O)C[C@@]21C [BMV, Betamethasone-17-Valerate]
concentration of IL-5 and TNF-α [1]: below the detection limit
